# Data taken from patent US9662318B2, “Bitopic muscarinic agonists and antagonists and methods of synthesis and use thereof” (BARRY UNIVERSITY, INC., priority 2012, dated 2017).
# Like-named read-outs stand apart in the source and are kept apart here.
# Columns and labels:
# [1] = test system: M1-M5 muscarinic receptors; assay type: binding, human; settings: competition experiments, all M1-M5
# M3 muscarinic receptor = biological target: T1, M3 muscarinic receptor (Homo sapiens, UniProt P20309); assay: Dissociation of [3H]acetylcholine (full time course kinetics); assay type: binding; settings: [3H]acetylcholine dissociation
# T1 construct: host or cells: Chinese hamster ovary cells
# T1 sequence (P20309 whole entry): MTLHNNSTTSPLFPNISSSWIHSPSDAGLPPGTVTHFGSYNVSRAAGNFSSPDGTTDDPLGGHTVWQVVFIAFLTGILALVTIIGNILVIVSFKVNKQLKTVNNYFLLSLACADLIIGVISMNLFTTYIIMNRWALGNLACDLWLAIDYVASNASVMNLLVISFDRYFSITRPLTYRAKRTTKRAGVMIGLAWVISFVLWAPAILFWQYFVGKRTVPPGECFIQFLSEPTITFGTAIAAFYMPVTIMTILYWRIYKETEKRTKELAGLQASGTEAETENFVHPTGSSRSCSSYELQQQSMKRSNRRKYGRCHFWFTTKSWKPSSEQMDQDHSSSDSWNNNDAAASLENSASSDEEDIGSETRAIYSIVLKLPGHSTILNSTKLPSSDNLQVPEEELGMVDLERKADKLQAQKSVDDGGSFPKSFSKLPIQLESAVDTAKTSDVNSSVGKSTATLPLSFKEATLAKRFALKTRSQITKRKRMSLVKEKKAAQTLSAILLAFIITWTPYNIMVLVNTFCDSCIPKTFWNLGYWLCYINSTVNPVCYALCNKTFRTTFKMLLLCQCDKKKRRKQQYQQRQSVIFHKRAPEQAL
# From the text: To probe the ability of JB-D4 to allosterically modulate orthosteric ligand, its effect on the rate of orthosteric radioligand dissociation has been investigated. […] where y is the percentage of radioligand binding at time x of radioligand binding at time 0, koff1 and koff2 are rate dissociation constants and f2 is the percentage of sites with koff2 rate of dissociation. […] y is the percentage of radioligand binding at time x of radioligand binding at time 0, koff is rate dissociation constant and f is percentage of sites with koff rate of dissociation. Eq. 2 was fitted to the data from kinetic experiments. Data are means±SD from 3 independent experiments performed in quadruplicates.
smiles,measurement,setting,value
"CCCCOc1ccc(C(=O)OCC[N+]2(C)CCCCC2)cc1.[I-] [JB-D4, 2-(N-piperidineethyl) p-butoxybenzoate N-methyl iodide]",inhibition of QNB binding,[1],fully inhibit
same,f,"M3 muscarinic receptor; +0.1 mM JB-D4, M3",84 ± 3%
same,koff,"M3 muscarinic receptor; +0.1 mM JB-D4, M3, read-out: koff (converted)",0.00317 s⁻¹
same,f,"M3 muscarinic receptor; +1 mM JB-D4, M3",82 ± 3%
same,koff,"M3 muscarinic receptor; +1 mM JB-D4, M3",0.0014 ± 0.00012 s⁻¹
same,koff,"M3 muscarinic receptor; +1 mM JB-D4, M3, read-out: koff (converted)",0.0014 s⁻¹
